Assay results taken from patent US11542210B2, “Method of producing a monoammonium phosphate containing fertilizer solution” (Liquigro Holdings (Proprietary) Limited, priority 2016, dated 2023).

System: Maize
Assay: Crop application - vegetative growth (maize): spray application, damage to the plants
Format: in vivo
Source text: When using MAP technical, it is only possible to spray a maximum of 1 kg P per ha before damage is inflicted on the plants.

With `N.O=P(O)(O)O` [MAP technical, monoammonium phosphate (technical)] the “maximum that can be sprayed before damage is inflicted on the plants” value was no more than 1 kg P per ha.
